Reference: patent US20050020593A1, “Aryl-heteroaromatic compounds, compositions comprising them and use” (Aventis Pharma, priority 2003, published 2005)

Columns and labels:
Tubulin = biological target: T1, Tubulin (Sus scrofa, UniProt P02550+P02554); test: Assessment of the inhibition of tubulin polymerization (turbidimetry at 350 nm); assay type: biochemical; conditions: tubulin purified from pig brains, 10 μM; concentration inhibiting the rate of polymerization by 50%
T1 construct: Tubulin is purified from pig brains according to published methods; from tissue; host or cells: pig brain
Protocol: Tubulin is purified from pig brains according to published methods (Shelanski et al., 1973, Proc. Natl. Acad. Sci. USA, 70, 765-768, Weingarten et al., 1975, Proc. Natl. Acad. Sci. USA, 72, 1858-1862). Briefly, the brains are ground and centrifuged in an extraction buffer. The tubulin, present in the extract supernatant, is subjected to two successive cycles of polymerization at 37° C. and depolymerization at 4° C., before being separated from the MAPS (microtubule associated proteins) by chromatography on a phosphocellulose P11 column (Whatman). The tubulin thus isolated is more than 95% pure. It is stored in a buffer known as RB/2 30% glycerol, the composition of which is 50 mM MES-NaOH [2-(N-morpholino)ethanesulfonic acid], pH 6.8; 0.25 mM MgCl2; 0.5 mM EGTA; 30% (v/v) glycerol, 0.2 mM GTP (guanosine 5′-triphosphate).
The polymerization of the tubulin into microtubules is monitored by turbidimetry as follows: the tubulin is adjusted to a concentration of 10 μM (1 mg/ml) in the RB/2 30% glycerol buffer, to which are added 1 mM GTP and 6 mM MgCl2. The polymerization is initiated by increasing the temperature from 6° C. to 37° C. in a cuvette with 1 cm optical path length, placed in a Uvikon 931 spectrophotometer (Kontron) equipped with a thermostatically-regulated cuvette holder. The increase in turbidity of the solution is followed at 350 nm.
The products are dissolved at 10 mM in DMSO and added at variable concentrations (0.5 to 10 μM) to the tubulin solution before polymerization. The IC50 value is defined as the concentration of product which inhibits the rate of polymerization by 50%. A product with an IC50 value of less than or equal to […] is considered to be very active.

HCT116 cells = test: Inhibition of proliferation of the human colon tumor line HCT116 ([14C]thymidine incorporation); assay type: cell-based; conditions: HCT-116, 48 hours at 37° C.
Protocol: Assay for Determining the Inhibition of Proliferation of the Human Colon Tumor Line HCT116
The proliferation of HCT116 cells is evaluated by measuring the incorporation of [^14C]thymidine in the following way. The HCT116 cells (from ATCC) are cultured in a DMEM medium (Gibco) which contains 10% foetal calf serum and antibiotics (1% penicillin, 1% streptomycin). To carry out the proliferation assay, the cells are seeded into 96-well Cytostar microplates (Amersham), at a rate of 5000 cells per well. The [^14C]thymidine (0.1 μCi/well) and the products to be evaluated are then added. Variable concentrations of products up to 10 μM are used; the DMSO (solvent used to dissolve the products) should not exceed 0.5% in the medium. 48 hours after incubation at 37° C., the radioactivity incorporated into the cells is measured by counting the plates in a Tri-Lux counter (Wallac). The IC50 value is defined as the concentration of product which reduces the radioactivity by 50% compared with an untreated control. A product with an IC50 value of less than 10 μM is considered to be cytotoxic.

T1 sequence (P02550 whole entry): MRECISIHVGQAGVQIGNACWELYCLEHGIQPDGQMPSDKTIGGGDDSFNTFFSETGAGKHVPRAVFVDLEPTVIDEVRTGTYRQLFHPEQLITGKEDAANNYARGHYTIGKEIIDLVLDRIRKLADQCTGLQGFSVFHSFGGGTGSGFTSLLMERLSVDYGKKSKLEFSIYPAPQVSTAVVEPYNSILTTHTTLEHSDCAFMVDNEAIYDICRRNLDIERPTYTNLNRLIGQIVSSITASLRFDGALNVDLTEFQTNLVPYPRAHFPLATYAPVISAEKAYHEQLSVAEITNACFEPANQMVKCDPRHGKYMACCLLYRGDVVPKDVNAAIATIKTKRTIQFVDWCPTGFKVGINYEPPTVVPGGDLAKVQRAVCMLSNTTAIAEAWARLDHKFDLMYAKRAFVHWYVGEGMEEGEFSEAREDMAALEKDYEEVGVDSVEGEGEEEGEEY
T1 sequence (P02554 whole entry): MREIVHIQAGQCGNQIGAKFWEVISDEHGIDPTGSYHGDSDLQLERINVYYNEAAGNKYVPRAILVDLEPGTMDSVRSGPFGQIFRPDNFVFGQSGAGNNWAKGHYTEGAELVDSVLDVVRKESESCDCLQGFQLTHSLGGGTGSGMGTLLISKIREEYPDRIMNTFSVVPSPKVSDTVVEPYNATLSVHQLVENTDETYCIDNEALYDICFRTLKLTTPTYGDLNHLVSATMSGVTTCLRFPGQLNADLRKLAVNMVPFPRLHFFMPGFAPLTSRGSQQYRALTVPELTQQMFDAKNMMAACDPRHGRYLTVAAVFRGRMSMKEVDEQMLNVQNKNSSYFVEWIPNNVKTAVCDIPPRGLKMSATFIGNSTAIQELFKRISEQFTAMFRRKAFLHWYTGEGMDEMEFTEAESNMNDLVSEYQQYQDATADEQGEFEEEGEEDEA

Structure (SMILES) | IC50 (Tubulin) [nM] | IC50 (HCT116 cells) [nM] | melting point [°C]
COc1cc(OC)cc(N2CCN(C(=O)c3c4ccccc4nn3-c3ccccc3)CC2)c1 [Example 3] | 500 | 9.8 | –
NC(=O)c1cccc(N2CCN(C(=O)c3cc4ccccc4n3-c3ccccc3)CC2)c1 [Example 7, [4-(3-carboxamidophenyl)piperazin-1-yl](1-phenyl-1H-indol-2-yl)methanone] | 900 | – | –
COc1cc(OC)cc(N2CCN(C(=O)c3cc4ccccc4n3-c3ccccc3)CC2)c1 [Example 8, [4-(3,5-dimethoxyphenyl)piperazin-1-yl](1-phenyl-1H-indol-2-yl)methanone] | 1100 | – | 146
COc1cc(OC)cc(N2CCN(C(=O)c3cc4cc(OC)ccc4n3-c3ccccc3)CC2)c1 [Example 9, [4-(3,5-dimethoxyphenyl)piperazin-1-yl](5-methoxy-1-phenyl-1H-indol-2-yl)methanone] | 1200 | – | 165

More lines, now with the values ahead:

IC50 (Tubulin) [nM] | IC50 (HCT116 cells) [nM] | melting point [°C] | Structure (SMILES)
800 | 76 | – | O=C(c1cc2ccccc2n1-c1ccccc1)N1CCN(c2cccc(Cl)c2)CC1 [Example 1, [4-(3-chlorophenyl)piperazin-1-yl](1-phenyl-1H-indol-2-yl)methanone]
800 | 6 | – | O=C(c1c2ccccc2nn1-c1ccccc1)N1CCN(c2cccc(Cl)c2)CC1 [Example 2]
1100 | 990 | – | O=C(c1c(-c2ccccc2)sc2ccccc12)N1CCN(c2cccc(Cl)c2)CC1 [Example 4, [4-(3-chlorophenyl)piperazin-1-yl](2-phenylbenzo[b]thiophen-3-yl)methanone]
2600 | – | 125 | COc1ccc2c(c1)cc(C(=O)N1CCN(c3cccc(Cl)c3)CC1)n2-c1ccccc1 [Example 10, [4-(3-chlorophenyl)piperazin-1-yl](5-methoxy-1-phenyl-1H-indol-2-yl)methanone]
800 | – | 188 | O=C(C1=Nc2ccc(Cl)cc2C1c1ccccc1)N1CCN(c2cccc(Cl)c2)CC1 (stereo not drawn) [Example 11, [4-(3-chlorophenyl)piperazin-1-yl](5-chloro-3-phenyl-1H-indol-2-yl)methanone]
– | – | 98 | COc1cc(OC)cc(N2CCN(C(=O)c3cc4n(c3-c3ccccc3)CSC4)CC2)c1 [Example 14, [4-(3,5-dimethoxyphenyl)piperazin-1-yl](5-phenyl-1H-pyrrolo-[1,2-c]thiazol-6-yl)methanone]
